According to the supplement of paper PMC10307832:

Assays:
Test in all cases: relative viability (nuclei count vs DMSO), 5 days (fraction); higher = more cells survive
[1] = compound: CC1=C(C=C(C=C1)NC(=O)C2=CC(=CC=C2)C(C)(C)C#N)NC3=CC4=C(C=C3)N=CN(C4=O)C [AZ628] + CS(=O)(=O)CCNCc1ccc(-c2ccc3ncnc(Nc4ccc(OCc5cccc(F)c5)c(Cl)c4)c3c2)o1 [Lapatinib] (partner 2 µM)
Summary of the method: (§1)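 Relative viability equals treated-well nuclei counts divided by vehicle-well nuclei counts. Counts came from 4× images of lung cancer cell lines grown in 1536-well plates for 5 days after pin-tool dosing on the day after seeding. Dosing used one drug alone or a fixed anchor-drug dose plus five library-drug doses (not always all listed) in √10 steps, and values are medians of duplicate plates.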

[2] = compound: C[As](C)SC[C@H](NC(=O)CC[C@H](N)C(=O)O)C(=O)NCC(=O)O [Darinaparsin] + Nc1nc2[nH]cc(CCc3ccc(C(=O)N[C@@H](CCC(=O)O)C(=O)O)cc3)c2c(=O)[nH]1 [Pemetrexed] (partner 0.2 µM)
Summary of the method: as §1

[3] = compound: CC1=C(C=C(C=C1)NC(=O)C2=CC(=CC=C2)C(C)(C)C#N)NC3=CC4=C(C=C3)N=CN(C4=O)C [AZ628] + C[C@]1(O)C[C@@H](c2nc(-c3ccc4ccc(-c5ccccc5)nc4c3)c3c(N)nccn32)C1 [Linsitinib] (partner 1 µM)
Summary of the method: as §1

[4] = compound: C[As](C)SC[C@H](NC(=O)CC[C@H](N)C(=O)O)C(=O)NCC(=O)O [Darinaparsin] + Nc1ncn([C@H]2C[C@H](O)[C@@H](CO)O2)c(=O)n1 [Decitabine] (partner 2 µM)
Summary of the method: as §1

LCLC-97TM1
relative viability ([1]; first compound 0.08 µM): 1.01
relative viability ([1]; first compound 0.253 µM): 1.01
relative viability ([1]; first compound 0.8 µM): 1.37
relative viability ([1]; first compound 2.53 µM): 1.2
relative viability ([1]; first compound 8 µM): 0.152
relative viability ([2]; first compound 0.08 µM): 0.162
relative viability ([2]; first compound 0.8 µM): 0.177
relative viability ([2]; first compound 2.53 µM): 0.166
relative viability ([2]; first compound 8 µM): 0.185
relative viability ([3]; first compound 0.08 µM): 0.212
relative viability ([3]; first compound 0.253 µM): 0.24
relative viability ([3]; first compound 0.8 µM): 0.179
relative viability ([3]; first compound 2.53 µM): 0.202
relative viability ([3]; first compound 8 µM): 0.136
relative viability ([4]; first compound 0.08 µM): 0.246
relative viability ([4]; first compound 0.8 µM): 0.252
relative viability ([4]; first compound 2.53 µM): 0.211
relative viability ([4]; first compound 8 µM): 0.258
